Data published in patent US10208074B2, “Pyrazole compounds and method for making and using the compounds” (Rigel Pharmaceuticals, Inc., priority 2015, dated 2019).
Structures can show the parent of a compound that is named as a salt. Where two headings read alike, the source gives them in different places.

Columns and labels:
IL-23p19 = test: LPS induced IL23p19 in THP-1 cells (with IFNγ primed) assay; assay type: cell-based, Human
Summary of the method: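 THP-1 cells primed ~18 h with IFNγ (50 ng/mL), pre-incubated 1 h with compound at 37 °C, then stimulated 18 h with LPS (1 ug/mL final). Supernatant IL-23p19 measured by sandwich ELISA with chemiluminescent read-out; EC50 from curve fitting. Toxicity checked on the remaining cells by Cell Titer Glo.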

IL-23 (p19/p40) = test: IL23-p19 ELISA, Dendritic, LPS (compound screening using DC cells); assay type: cell-based, Human
Summary of the method: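 Human PBMC-derived dendritic cells (7 d GM-CSF 100 ng/ml + IL-4 20 ng/ml), primed 24 h with IFNγ 50 ng/ml, pre-incubated 1 h with compound, then stimulated 18 h with LPS 1 μg/ml. Supernatant IL-23 measured by p19-capture/p40-detection chemiluminescent ELISA; CellTiter Glo checks cytotoxicity.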

[1] = Homo sapiens, THP-1, 18 h, THP-1 cells, IFNγ primed, LPS 1 ug/mL, 18 hours, 10 pt, read-out: IL23-p19 ELISA, THP1-IFNy, LPS, 10 pt EC50
[2] = Homo sapiens, 18 h, PBMC-derived DC cells, IFNγ primed, LPS 1 μg/ml, 18 hours, 10 pt, read-out: IL23-p19 ELISA, Dendritic, LPS, 10 pt, EC50

SMILES | EC50 (IL-23p19; [1]) [µM] | EC50 (IL-23 (p19/p40); [2]) [µM] | further results
O=C(Nc1cn([C@H]2C[C@@H](OCC(F)(F)F)C2)nc1-c1ccccn1)c1ccc(-c2cn[nH]c2)o1 [Compound I-146, 5-(1H-pyrazol-4-yl)-N-(3-(pyridin-2-yl)-1-((1s,3s)-3-(2,2,2-trifluoroethoxy)cyclobutyl)-1H-pyrazol-4-yl)furan-2-carboxamide formate] | 0.149 | 0.37 | –
CC(C)(C)C(=O)N1CC(n2cc(NC(=O)c3ccc(-c4cn[nH]c4)o3)c(-c3ccccn3)n2)C1 [Compound I-91, N-[1-{1-Pivaloylazetidin-3-yl}-3-(pyridine-2-yl)-1H-pyrazol-4-yl]-5-(1H-pyrazol-4-yl)furan-2-carboxamide, formate salt] | 0.0122 | 0.0106 | –
CCO[C@H]1C[C@@H](n2cc(NC(=O)c3csc(-c4cn[nH]c4)n3)c(C(N)=O)n2)C1 [II-70, N-(3-carbamoyl-1-((1s,3s)-3-ethoxycyclobutyl)-1H-pyrazol-4-yl)-2-(1H-pyrazol-4-yl)thiazole-4-carboxamide] | 1.86 | 1.02 | –
CCOCCn1cc(NC(=O)c2coc(-c3cn[nH]c3)n2)c(-c2ccccn2)n1 [III-3, N-(1-(2-ethoxyethyl)-3-(pyridin-2-yl)-1H-pyrazol-4-yl)-2-(1H-pyrazol-4-yl)oxazole-4-carboxamide] | 0.243 | 0.17 | –
O=C(Nc1cn(CC2(CO)COC2)nc1-c1ccccn1)c1csc(-c2cn[nH]c2)n1 [II-47, N-(1-((3-(hydroxymethyl)oxetan-3-yl)methyl)-3-(pyridin-2-yl)-1H-pyrazol-4-yl)-2-(1H-pyrazol-4-yl)thiazole-4-carboxamide] | 1.17 | 3.21 | –
CCOCCn1cc(NC(=O)c2ccc(-c3c[nH]nc3C)o2)c(-c2ccccn2)n1 [Compound I-56, N-(1-(2-ethoxyethyl)-3-(pyridin-2-yl)-1H-pyrazol-4-yl)-5-(3-methyl-1H-pyrazol-4-yl)furan-2-carboxamide formate] | 0.156 | 7.72 | –
O=C(Nc1cn([C@H]2C[C@@H](O)C2)nc1-c1ncccc1F)c1csc(-c2cn[nH]c2)n1 [II-65, N-(3-(3-fluoropyridin-2-yl)-1-((1s,3s)-3-hydroxycyclobutyl)-1H-pyrazol-4-yl)-2-(1H-pyrazol-4-yl)thiazole-4-carboxamide] | 0.0373 | 0.0489 | –
O=C(Nc1cn(C(F)F)nc1-c1ccccn1)c1csc(-c2c[nH]nc2C(F)(F)F)n1 [II-95, N-(1-(difluoromethyl)-3-(pyridin-2-yl)-1H-pyrazol-4-yl)-2-(3-(trifluoromethyl)-1H-pyrazol-4-yl)thiazole-4-carboxamide] | 2.25 | 6.23 | –
COCCOCCn1cc(NC(=O)c2csc(-c3c[nH]nc3C)n2)c(-c2ccccn2)n1 [II-39, N-(1-(2-(2-methoxyethoxy)ethyl)-3-(pyridin-2-yl)-1H-pyrazol-4-yl)-2-(3-methyl-1H-pyrazol-4-yl)thiazole-4-carboxamide] | 0.167 | 0.178 | –
CCO[C@H]1C[C@@H](n2cc(NC(=O)c3csc(-c4cnn(COP(=O)(O)O)c4)n3)c(-c3ccccn3)n2)C1 [II-78, (4-(4-((1-((1,3-cis)-3-ethoxycyclobutyl)-3-(pyridin-2-yl)-1H-pyrazol-4-yl)carbamoyl)thiazol-2-yl)-1H-pyrazol-1-yl)methyl phosphate calcium salt] | – | – | EC50 (IL-23p19; THP-1 cells, IFNγ primed, LPS 1 ug/mL, 18 hours, 10 pt, phosphate calcium salt, read-out: IL23-p19 ELISA, THP1-IFNy, LPS, 10 pt EC50): 0.165 µM; EC50 (IL-23 (p19/p40); PBMC-derived DC cells, IFNγ primed, LPS 1 μg/ml, 18 hours, 10 pt, phosphate calcium salt, read-out: IL23-p19 ELISA, Dendritic, LPS, 10 pt, EC50): 0.0799 µM
COCCOCCn1cc(NC(=O)c2ccc(-c3cn[nH]c3)o2)c(-c2ccccn2)n1 [Compound I-17, N-(1-(2-(2-methoxyethoxy)ethyl)-3-(pyridin-2-yl)-1H-pyrazol-4-yl)-5-(1H-pyrazol-4-yl)furan-2-carboxamide hydrochloride salt] | – | – | EC50 (IL-23p19; THP-1 cells, IFNγ primed, LPS 1 ug/mL, 18 hours, 10 pt, hydrochloride salt, read-out: IL23-p19 ELISA, THP1-IFNy, LPS, 10 pt EC50): 0.285 µM; EC50 (IL-23 (p19/p40); PBMC-derived DC cells, IFNγ primed, LPS 1 μg/ml, 18 hours, 10 pt, hydrochloride salt, read-out: IL23-p19 ELISA, Dendritic, LPS, 10 pt, EC50): 0.424 µM
O=C(Nc1cn([C@H]2CC[C@H](O)C2)nc1-c1ccccn1)c1ccc(-c2cn[nH]c2)o1 [Compound I-136, N-(1-((1S,3S)-3-hydroxycyclopentyl)-3-(pyridin-2-yl)-1H-pyrazol-4-yl)-5-(1H-pyrazol-4-yl)furan-2-carboxamide formate] | 0.0448 | 0.0878 | –
COCCn1cc(NC(=O)c2ccc(-c3cn[nH]c3)o2)c(-c2ncccn2)n1 [Compound I-7, N-(1-(2-methoxyethyl)-3-(pyrimidin-2-yl)-1H-pyrazol-4-yl)-5-(1H-pyrazol-4-yl)furan-2-carboxamide] | 0.433 | 0.399 | –
O=C(Nc1cn([C@H]2CC[C@H](O)C2)nc1-c1ccccn1)c1csc(-c2cn[nH]c2)n1 (relative stereo) [II-151, N-(1-((trans)-3-hydroxycyclopentyl)-3-(pyridin-2-yl)-1H-pyrazol-4-yl)-2-(1H-pyrazol-4-yl)thiazole-4-carboxamide] | 0.0649 | 0.0622 | –
O=C(Nc1cn(CCOCC(F)F)nc1-c1ccccn1)c1csc(-c2cn[nH]c2)n1 [II-122, N-(1-(2-(2,2-difluoroethoxy)ethyl)-3-(pyridin-2-yl)-1H-pyrazol-4-yl)-2-(1H-pyrazol-4-yl)thiazole-4-carboxamide] | 0.213 | 0.304 | –
O=C(Nc1cn(C(F)F)nc1-c1ccccn1)c1ccc(-c2cn[nH]c2)o1 [Compound I-115, N-(1-(difluoromethyl)-3-(pyridin-2-yl)-1H-pyrazol-4-yl)-5-(1H-pyrazol-4-yl)furan-2-carboxamide] | 0.0913 | 0.365 | –
CCO[C@H]1C[C@@H](n2cc(NC(=O)c3csc(-c4cnn(COP(=O)(O)O)c4)n3)c(-c3cccc(F)n3)n2)C1 [II-173, (4-(4-((1-((cis)-3-ethoxycyclobutyl)-3-(6-fluoropyridin-2-yl)-1H-pyrazol-4-yl)carbamoyl)thiazol-2-yl)-1H-pyrazol-1-yl)methyl dihydrogen phosphate] | 0.0414 | 0.314 | –
O=C(Nc1cn(C2C=C(F)C2)nc1-c1ccccn1)c1csc(-c2cn[nH]c2)n1 (stereo not shown) [II-133, N-(1-(3-fluorocyclobut-2-en-1-yl)-3-(pyridin-2-yl)-1H-pyrazol-4-yl)-2-(1H-pyrazol-4-yl)thiazole-4-carboxamide formate] | – | – | EC50 (IL-23p19; THP-1 cells, IFNγ primed, LPS 1 ug/mL, 18 hours, 10 pt, formate, read-out: IL23-p19 ELISA, THP1-IFNy, LPS, 10 pt EC50): 0.313 µM; EC50 (IL-23 (p19/p40); PBMC-derived DC cells, IFNγ primed, LPS 1 μg/ml, 18 hours, 10 pt, formate, read-out: IL23-p19 ELISA, Dendritic, LPS, 10 pt, EC50): 1.52 µM
CCO[C@H]1C[C@@H](n2cc(NC(=O)c3csc(-c4cnn(COP(=O)(O)O)c4)n3)c(-c3ccccn3)n2)C1 [II-82, (4-(4-((1-((1,3-cis)-3-ethoxycyclobutyl)-3-(pyridin-2-yl)-1H-pyrazol-4-yl)carbamoyl)thiazol-2-yl)-1H-pyrazol-1-yl)methyl phosphate bis-arginine salt] | – | – | EC50 (IL-23p19; Homo sapiens, THP-1, 18 h, read-out: IL23-p19 ELISA, THP1-IFNy, LPS, 10 pt EC50 (μM)): 0.0387 µM; EC50 (IL-23 (p19/p40); Homo sapiens, 18 h, read-out: IL23-p19 ELISA, Dendritic, LPS, 10 pt, EC50 (μM)): 0.176 µM
COCCn1cc(NC(=O)c2csc(-c3cn[nH]c3)n2)c(-c2ccccn2)n1 [II-28, N-(1-(2-methoxyethyl)-3-(pyridin-2-yl)-1H-pyrazol-4-yl)-2-(1H-pyrazol-4-yl)thiazole-4-carboxamide] | 0.276 | 0.063 | –
O=C(Nc1cn(C2CC(OCc3ccccc3)C2)nc1-c1ccccn1)c1ccc(-c2cn[nH]c2)o1 (stereo not drawn) [Compound I-73, N-{1-(3-Benzyloxy)cyclobutyl)-3-(pyridine-2-yl)-1H-pyrazol-4-yl}-5-(1H-pyrazol-4-yl)furan-2-carboxamide, Trans isomer] | 0.697 | 0.41 | –
COCCOCCn1cc(NC(=O)c2ccc(-c3c[nH]nc3C)o2)c(-c2ccccn2)n1 [Compound I-18, N-(1-(2-(2-methoxyethoxy)ethyl)-3-(pyridin-2-yl)-1H-pyrazol-4-yl)-5-(3-methyl-1H-pyrazol-4-yl)furan-2-carboxamide] | 0.514 | 1.2 | –
CCOCCn1cc(NC(=O)c2csc(-c3cn[nH]c3)n2)c(-c2ccccn2)n1 [II-18, N-(1-(2-ethoxyethyl)-3-(pyridin-2-yl)-1H-pyrazol-4-yl)-2-(1H-pyrazol-4-yl)thiazole-4-carboxamide, formic acid salt] | – | – | EC50 (IL-23p19; THP-1 cells, IFNγ primed, LPS 1 ug/mL, 18 hours, 10 pt, formic acid salt, read-out: IL23-p19 ELISA, THP1-IFNy, LPS, 10 pt EC50): 0.301 µM; EC50 (IL-23 (p19/p40); PBMC-derived DC cells, IFNγ primed, LPS 1 μg/ml, 18 hours, 10 pt, formic acid salt, read-out: IL23-p19 ELISA, Dendritic, LPS, 10 pt, EC50): 0.0314 µM
